What all share (format): cell-based
In assay [1] the test system is Pseudomonas aeruginosa PA14 wild-type. Put plainly: microbe, parasite or virus in culture. The settings on record: for differences in planktonic cell susceptibility between the different strains: wild type vs gacS^− vs SCV, log2 difference or less. As for the experimental part: (§1) Antimicrobial susceptibility testing. Antibiotic, metal and biocide susceptibility tests were performed. Antimicrobials were arranged into arrays in microtitre plates that typically consisted of serial two-fold dilutions along the rows of wells (the challenge plates). The first and last wells of every row were used as sterility and growth controls, respectively. […] Biofilms were rinsed with PBS (to remove loosely adherent planktonic cells) and inserted into the challenge plates. After exposure, biofilms were rinsed once in PBS and inserted into microtitre plates containing […] of recovery medium in each well (LB broth, 5 mM GSH, 5 mM L-cys, 1% v/v tween-20). These biofilms were disrupted into the recovery medium using a sonicator, and the recovered cells were serially diluted and plated for viable cell counting. Spot plates from these experiments were incubated for a minimum of 36 h at 35° C. before enumeration. Minimum inhibitory concentration (MIC) values were determined by reading the optical density at 650 nm (OD650) of challenge plates after 72 h at 35° C. using a THERMOmax microplate reader with SOFTMAX PRO data analysis software (Molecular Devices, Sunnyvale, Calif.).
(§2) For susceptibility testing, growth-curve data were used to calibrate incubation times to produce biofilms of similar cell density. […] In this model system, planktonic cells shed from the surface of biofilms served as the inoculum for MIC determinations.

Assay [2] concerns Pseudomonas aeruginosa PA14 wild-type biofilms. To be noted: for MBEC99.9: wild type biofilms, 2 h exposure, 3 log10 reduction in viable cells.
Text: (§3) Biofilm formation. Biofilms were aerobically cultivated using the MBEC high-throughput (HTP) or Physiology and Genetics (P&G) device (Innovotech, Edmonton, Canada) as described in the manufacturer's instructions and by Ceri et al. (1999). To summarize, the parts of this batch culture apparatus were used in two ways. The top half of the plastic MBEC™-HTP device is a lid with 96 polystyrene pegs that also fits over a standard 96-well microtitre plate. For Biofilm growth, the bottom half was either (1) a corrugated trough that guided 22 mL of inoculum across the pegs when the device was placed on a rocker at 3.5 rocks per min (HTP format), or (2) a microtitre plate with […] of inoculum in each well that was placed on a gyrorotary shaker at 150 r.p.m. (P&G format). For either assay format, the inoculum was prepared to c. 10^7CFU/mL1 of the desired strain and the inoculated device was incubated at 35° C. and 95% relative humidity for the required time. Unless otherwise noted, all experiments utilized the MBEC P&G assay. Pegs from the devices were collected at specific time points for scanning electron microscopy and scanning confocal laser microscopy. Biofilm cell densities were evaluated by breaking pegs from the lid of the MBEC device with sterile pliers, rinsing the peg in PBS, and subsequent viable-cell counting as described above. PBS containing the […] surfactant Tween-20 (1% v/v) was used to assist in recovery of bacteria from the peg surfaces. Pegs were sonicated for 30 min in an Aquasonic model 250HT ultrasonic cleaner (VWR International, Mississauga, Canada). Samples of broth culture were collected at the same time points and viable cell counts were determined in a similar manner.
as §1, §2

The test system of assay [3] is Pseudomonas aeruginosa PA14 gacS^− biofilms. Put plainly: Biofilm susceptibility testing (viable cell counts, log-killing, MBEC99.9). To be noted: for Log-survival / No. of survivors / SCV frequency: LB broth; for Log-survival / No. of survivors / SCV frequency / MBEC99.9: 2 h exposure; for MBEC99.9: gacS^− biofilms, 3 log10 reduction in viable cells.
Text: as §3, §1, §2

The subject of assay [4] is Pseudomonas aeruginosa PA14 SCV biofilms. Described as above. The settings on record: for MBEC99.9: 2 h exposure, 3 log10 reduction in viable cells; for tolerance of SCV strain biofilms relative to the wild-type strain: ratio of MBEC99.9 values, SCV vs wild type.
Text: as §3, §1, §2

For assay [5], the system named is Pseudomonas aeruginosa PA14 gacS^− biofilms. Kind of assay: Frequency of SCV cells arising from 24-h biofilms exposed for 18 h. The settings on record: in words. How it is done:
In an alternative set of experiments, the frequency of SCV cells arising from 24-h biofilms of P. aeruginosa PA14 gacS was evaluated. Antibiotics were diluted from stock solutions into LB broth to obtain final concentrations of […]. These were arranged in triplicate in a micro-titre plate. Biofilms were incubated in these low concentrations of antibacterials for 18 h at 35° C. and 95% relative humidity. Goat and human serum were also assayed in this array, and were kind gifts from The Life and Environmental Sciences Animal Care Facility at the University of Calgary, Department of Biological Sciences. After exposure, biofilms were treated in a manner identical to that described above.
Frequency of phenotypic variation. During the course of susceptibility assays, the proportion of SCV cells recovered from biofilms after exposure to Ag^+ or H2O2 was increased relative to the corresponding growth controls. It was queried whether this may be true for other antimicrobial agents or growth conditions. An array of clinically used antibiotics, saline, and goat and human sera were examined for an ability to select for these SCVs from 24-h biofilms of P. aeruginosa PA14 gacS. Biofilms were exposed to these agents for 18 h and each assay was performed in triplicate. Viable cell counts were determined for each exposure condition, and log-survival was determined. The proportion of SCV cells in bacterial populations recovered from these exposure conditions was calculated as the mean of the proportions from each individual trial.

For assay [6], the system named is Pseudomonas aeruginosa PA14 SCV. Kind of assay: MIC determination, planktonic cells shed from biofilms (MBEC P&G device). To be noted: SCV, planktonic cells, OD650 after 72 h at 35° C., mean ± SD of four trials. How it is done:
as §1, §2

Assay [7] concerns Pseudomonas aeruginosa PA14 gacS^−. The assay is described as above. To be noted: gacS^−, planktonic cells, OD650 after 72 h at 35° C., mean ± SD of four trials. As for the experimental part:
as §1, §2

Where [8] appears, read: Pseudomonas aeruginosa, PA14, read-out: MIC72 h.
The mark [9] stands for this setting: wild type, planktonic cells, OD650 after 72 h at 35° C., mean ± SD of four trials.

In brackets after ≈: the same amount, converted by molar mass.

As for `O=C(O)c1cn(C2CC2)c2cc(N3CCNCC3)c(F)cc2c1=O` [Ciprofloxacin], the MIC is 0.4 ± 0.2 mg/L (≈ 1.21 µM) in assay [1] (Pseudomonas aeruginosa, PA14, wild type, planktonic cells, OD650 after 72 h at 35° C., mean ± SD of four trials, read-out: MIC72 h); 0.8 ± 0.4 mg/L (≈ 2.41 µM) in assay [6] (setting [8]); 0.7 ± 0.3 mg/L (≈ 2.11 µM) in assay [7] (setting [8]). Further, the “differences in planktonic cell susceptibility between the different strains” value (“differences” for short) in assay [1] is recorded as “no significant differences”. Besides, the MBEC99.9 turned out to be 0.16 ± 0 µg/mL in assay [2], 0.12 ± 0.05 µg/mL in assay [3] and 0.64 ± 0.45 µg/mL in assay [4] (SCV biofilms). The same molecule had a Log-survival in assay [3] (0.16 μg mL^−1) of −2.6 ± 0.8 log10 CFU peg^−1. This molecule came in with a No. of survivors in assay [3] (0.16 μg mL^−1) of 2.4 ± 0.8 log10 CFU peg^−1. The SCV frequency in assay [3] (0.16 μg mL^−1) is 0%. For the same molecule, the “tolerance of SCV strain biofilms relative to the wild-type strain” value in assay [4] is listed as “approximately four”. In assay [5], the “selection for SCVs / increase of the frequency of SCV cells compared with growth controls” value is reported as “in no instances”.

Consider `[Cu+2]` [Cu^2+], for which the “differences” value in assay [1] is “no significant differences”. The values for the MIC72 h in assay [1] (setting [9]), in assay [6] and in assay [7] were 8000 ± 0 µM, 4000 ± 0 µM and 8000 ± 0 µM, respectively. Besides, the MBEC99.9 came to 8 ± 0 mM in assay [2], 7 ± 2 mM in assay [3] and 64 ± 0 mM in assay [4] (SCV biofilms). In assay [3] (16 μg mL^−1), this molecule yielded a Log-survival of −0.9 ± 0.1 log10 CFU peg^−1. The No. of survivors in assay [3] (16 μg mL^−1) was 4.2 ± 0.1 log10 CFU peg^−1. Moreover, the SCV frequency in assay [3] (16 μg mL^−1) amounted to 0%. Besides, the “tolerance of SCV strain biofilms relative to the wild-type strain” value in assay [4] is listed as “eight”.

Take `[Ag+]` [Ag^+]: the “differences” value in assay [1] is given as “no significant differences”. For the same molecule, the MIC72 h in assay [1] (setting [9]) was found to be 40 ± 20 µM; in assay [6] it was 40 ± 0 µM; in assay [7], 40 ± 10 µM. Further, the “concentration at which the vast majority of cell viability was lost” value in assay [2] (PA14 wt biofilms, 2 h exposure (FIG. 15)) turned out to be 0.04 mM; in assay [3] (PA14 gacS biofilms, 2 h exposure (FIG. 15)), 0.02 mM. Besides, the MBEC99.9 is recorded as 0.08 ± 0.05 mM in assay [2], 0.06 ± 0.02 mM in assay [3] and 4.8 ± 0 mM in assay [4] (SCV biofilms). For the same molecule, the Log-survival in assay [3] (4 μg mL^−1) is −2.6 ± 0.1 log10 CFU peg^−1. The No. of survivors in assay [3] (4 μg mL^−1) is on record as 2.4 ± 0.1 log10 CFU peg^−1. The SCV frequency in assay [3] (4 μg mL^−1) was 7%. The “proportion of SCV cells recovered from biofilms after exposure, relative to growth controls” value in assay [3] (susceptibility assays, in words) is on record as “increased”. Moreover, the “concentration to which biofilms were resistant” value in assay [4] (SCV biofilms, 2 h exposure (FIG. 15)) is reported as 2.4 mM. The “tolerance of SCV strain biofilms relative to the wild-type strain” value in assay [4] is listed as approximately 60 times.

For the origin of these results see US20080075730A1, “Methods and compositions for treating biofilms” (priority 2003, published 2008).
